According to patent publication US11648220B2, “Methods for the treatment of myeloid derived suppressor cells related disorders” (The Rockefeller University, priority 2016, dated 2023):

How the values were obtained:
LXRα = target: T1, LXRα (Homo sapiens, UniProt Q13133); conditions: cited from earlier work
T1 sequence (Q13133 1-447): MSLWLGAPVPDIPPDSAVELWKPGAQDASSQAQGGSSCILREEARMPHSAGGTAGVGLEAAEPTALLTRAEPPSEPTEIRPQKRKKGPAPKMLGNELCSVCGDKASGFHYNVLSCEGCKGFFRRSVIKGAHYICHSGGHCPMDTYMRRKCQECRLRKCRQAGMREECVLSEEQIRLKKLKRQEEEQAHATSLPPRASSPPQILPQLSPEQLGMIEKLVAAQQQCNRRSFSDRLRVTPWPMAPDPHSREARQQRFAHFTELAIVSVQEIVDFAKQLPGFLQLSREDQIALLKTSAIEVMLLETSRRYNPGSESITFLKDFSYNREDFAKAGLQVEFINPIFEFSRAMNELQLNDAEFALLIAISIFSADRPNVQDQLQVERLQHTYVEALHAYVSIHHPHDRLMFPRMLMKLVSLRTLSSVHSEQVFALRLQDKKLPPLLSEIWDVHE

B16F10 melanoma [1] = assay: B16F10 tumors, compound 705 plus anti-PD-1 antibody; type: in vivo, mice; conditions: B16F10, diet 50 mg/kg/day plus anti-PD-1 antibody 10 mg/kg I.P. every 3 days
Description: All mouse studies were conducted according to a protocol approved by the Institutional Animal Care and Use Committee at the Rockefeller University. C57BL/6 mice were obtained from the Jackson Laboratory. For experiments testing the effect of LXR agonists on tumor growth, mice were assigned to a control chow or a chow supplemented with compound 682 (Sigma-Aldrich) or compound 705 (Rgenix, Inc.) at 50, or 100 mg/kg/day, as indicated. For combination drug regimens, mice were fed a compound 705-supplemented diet and co-treated with anti-PD-1 antibody (clone RMP1-14 BioXcell), 10 mg/kg by i.p. injection every 3 days for 3 total doses starting on the day of tumor injection. All drug-formulated diets were prepared by Research Diets. […]
(§1) At the indicated day, tumors were isolated from euthanized mice and minced into small (˜1 mm^2) pieces with a scalpel and then enzymatically dissociated. […] After staining, cells were subsequently analyzed by flow cytometry using an LSRII flow cytometer (BD Biosciences). Data was analyzed using FlowJo software. […]
After tumor cell injection, animals were treated with anti-PD-1 antibody at a dose of 10 mg/kg (clone RMP1-14; BioXcell), by intraperitoneal (I.P.) injection every 3 days for 3 total doses starting on the day of tumor injection. […] Tumor dimensions were measured using digital calipers, and tumor volume was calculated as (small diameter)^2×(large diameter)/2. […]

[2] = test system: CD8+ T-cells co-cultured with MDSCs; assay: T-cell suppression assay; type: cell-based; conditions: 24 hours co-culture with MDSCs from treated tumor-bearing mice
Description: CD8+ cells were purified from single cell suspensions from spleens of mice using the MACS CD8+ T-cell isolation kit (Miltenyi Biotech) according to manufacturer's protocol. Cells were then labeled with cell tracker reagent (BV). The labeled CD8+ T cells were plated on 96-well plates coated with 1 mg/ml anti-CD3 and anti-CD28 beads (Dynabeads® Mouse T-Activator CD3/CD28 for T-Cell Expansion and Activation; Gibco). Recombinant IL-2 (Gibco) was then added to the wells according to manufacturer's protocol. MDSC were then isolated using the MACS Myeloid-Derived Suppressor Cell Isolation Kit (Miltenyi Biotech) according to manufacturer's protocol and subsequently added in the indicated MDSC:T-cell ratios. Cells were incubated at 37° C. for 24-36 hours. T-cell activation was measured by flow cytometry by assessing the percent of T-cells positive for IFNγ staining with diluted BV dye.

[3] = test system: myeloid-derived suppressor cells (MDSCs) in B16F10 melanoma; assay: tumor-infiltrating MDSCs in B16F10 tumor-bearing mice (flow cytometry, Gr1 immunohistochemistry); type: in vivo
Description: All mouse studies were conducted according to a protocol approved by the Institutional Animal Care and Use Committee at the Rockefeller University. C57BL/6 mice were obtained from the Jackson Laboratory. For experiments testing the effect of LXR agonists on tumor growth, mice were assigned to a control chow or a chow supplemented with compound 682 (Sigma-Aldrich) or compound 705 (Rgenix, Inc.) at 50, or 100 mg/kg/day, as indicated. For combination drug regimens, mice were fed a compound 705-supplemented diet and co-treated with anti-PD-1 antibody (clone RMP1-14 BioXcell), 10 mg/kg by i.p. injection every 3 days for 3 total doses starting on the day of tumor injection. All drug-formulated diets were prepared by Research Diets.
All mouse studies were conducted according to a protocol approved by the Institutional Animal Care and Use Committee at the Rockefeller University. […]
as §1
At the indicated day, blood was drawn from mice and treated with RBC Lysis Buffer (Sigma) followed by filtration through a […] filter (Corning Inc) to obtain a single cell suspension of lymphocytes. […] After staining, cells were subsequently analyzed by flow cytometry using an LSRII flow cytometer (BD Biosciences). Data was analyzed using FlowJo software.
For MDSC quantification studies, frozen tumor sections (no fixation) were stained with an antibody against Gr1 (1:1000; BioXcell). […]

MDSCs = assay: MDSC abundance assay; type: cell-based, mice; conditions: 1 μM, 3 hours
Description: MDSCs were isolated from the spleens of tumor-bearing wild-type or ApoE−/− mice, as indicated, using the MACS Myeloid-Derived Suppressor Cell Isolation Kit (Miltenyi Biotech) according to manufacturer's protocol. MDSCs were then incubated in RPMI (Sigma) supplemented with 10% FBS and either COMPOUND 705 (dissolved in 2% DMSO at the indicated concentration) or control (2% DMSO) and subsequently incubated at 37° C. for the indicated time. Abundance was assessed by quantifying the percent of live cells using propidium Iodide staining. […]

B16F10 melanoma [4] = assay: B16F10 tumors, compound 705 plus adoptive transfer of Pmel CD8+ T-cells (survival); type: in vivo, mice; conditions: B16F10, diet 50 mg/kg/day plus 2×10^6 Pmel CD8+ T-cells
Description: (§2) All mouse studies were conducted according to a protocol approved by the Institutional Animal Care and Use Committee at the Rockefeller University. C57BL/6 (WT); and Pmel (B6.Cg-Thy1^a/Cy Tg(TcraTcrb)8Rest/J mice were obtained from the Jackson Laboratory. To determine the effect of LXR agonists on in vivo primary tumor growth, mice were injected with 5×10^4 B16F10 melanoma cells. For all tumor growth experiments, cells (suspension in […] of PBS) were mixed 1:1 with matrigel (356231, BD Biosciences, Bedford, Mass.) and subcutaneously injected into the lower flank of 6-8 week-old sex-matched mice. Following formation of tumors, mice were assigned to the following treatment groups as described below. All drug-formulated diets were prepared by Research Diets. After the indicated number of days, either peripheral blood or tumors were isolated to obtain tumor-infiltrating lymphocytes for flow-cytometry analysis as described below.
After tumor cell injection, tumor volumes were measured every two days. Upon tumors measuring 90-100 mm^3 in volume (day 6-7), mice were randomly assigned to a control diet treatment or a COMPOUND 705-supplemented diet (50 mg/kg/day; Rgenix).
The following day, 2×10^6 CD8+ T-cells from Pmel mice were adoptively transferred via retro-orbital injection into both control and COMPOUND 705 treated mice. […]

LXRβ = target: T2, LXRβ (Homo sapiens, UniProt P55055); assay: ligand sensing assay (LiSA), LXRβ; type: biochemical
T2 sequence (P55055 1-460): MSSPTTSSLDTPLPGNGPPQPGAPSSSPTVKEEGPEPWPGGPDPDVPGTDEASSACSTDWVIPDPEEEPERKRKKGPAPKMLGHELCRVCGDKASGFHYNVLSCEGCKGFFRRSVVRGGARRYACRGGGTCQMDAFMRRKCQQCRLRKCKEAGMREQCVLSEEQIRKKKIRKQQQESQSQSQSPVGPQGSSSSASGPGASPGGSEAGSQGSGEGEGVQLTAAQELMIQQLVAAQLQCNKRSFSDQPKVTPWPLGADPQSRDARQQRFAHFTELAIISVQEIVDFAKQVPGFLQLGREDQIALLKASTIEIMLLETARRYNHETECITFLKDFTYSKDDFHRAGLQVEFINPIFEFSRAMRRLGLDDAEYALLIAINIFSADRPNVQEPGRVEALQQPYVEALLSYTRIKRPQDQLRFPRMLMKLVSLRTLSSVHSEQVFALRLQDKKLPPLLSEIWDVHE
Text: As used herein, reference to the activity of an LXR agonist at LXRα and LXRβ refer to the activity as measured using the ligand sensing assay (LiSA) described in Spencer et al. Journal of Medicinal Chemistry 2001, 44, 886-897, incorporated herein by reference. […] For example, the methods of the invention can be performed using an LXRβ agonist having activity for LXRβ that is at least 3-fold greater than the activity of the agonist for LXRα, or having activity for LXRβ that is at least 10-fold greater than the activity of the agonist for LXRα, or having activity for LXRβ that is at least 100-fold greater than the activity of said agonist for LXRα, or having activity for LXRβ that is at least within 3-fold of the activity of the agonist for LXRα. The term “greater activity” in the LiSA assay refers to a lower EC50.

[5] = test system: activated CD8+ T-cells in B16F10 melanoma; assay: tumor-infiltrating activated CD8+ T-cells in B16F10 tumor-bearing mice (flow cytometry); type: in vivo; conditions: supplemented diet 100 mg/kg/day, tumors isolated day 12-14
Description: as §2, with “After the indicated number of days, either peripheral blood or tumors were isolated to obtain tumor-infiltrating lymphocytes for flow-cytometry analysis as described below.” left out
as §1
After tumor cell injection, animals were palpated every two days for tumor formation. […] Tumor dimensions were measured using digital calipers, and tumor volume was calculated as (small diameter)^2×(large diameter)/2. […]

[6] = daily I.P. injection 2 mg, day 12-14

CC(C)(O)c1cn(-c2ccc(-c3cccc(S(C)(=O)=O)c3)cc2)c(C(C)(C)c2ccccc2Cl)n1 [Compound 718]
EC50 (LXRα): 101 to 1000 nM

CC(CCOc1cccc(CC(=O)O)c1)N(Cc1cccc(C(F)(F)F)c1Cl)CC(c1ccccc1)c1ccccc1 (stereo not shown) [Compound 705]
anti-tumor T-cell response induced with anti-PD-1 antibody therapy (B16F10 melanoma [1]): enhances the anti-tumor T-cell response
MDSC-mediated suppression of CD8+ T-cells [2]: reverses MDSC-mediated suppression of CD8+ T-cells
number of granulocytic MDSCs (G-MDSC) [3, 6]: reduces the number
number of monocytic MDSCs (M-MDSC) [3, 6]: reduces the number
abundance of MDSCs in vitro (MDSCs): reduces abundance of MDSCs in vitro
anti-tumor activity of adoptively transferred melanoma-targeting CD8+ T-cells (B16F10 melanoma [4]): enhances the anti-tumor activity

O=C(O)Cc1cccc(OCCCN(Cc2cccc(C(F)(F)F)c2Cl)CC(c2ccccc2)c2ccccc2)c1 [Compound 682]
fold greater activity for LXRβ compared to LXRα (LXRβ): approximately 6 fold
number of tumor-infiltrating myeloid-derived suppressor cells (MDSCs) ([3]; supplemented diet 100 mg/kg/day, tumors isolated day 12-14): reduces the number of tumor-infiltrating myeloid-derived suppressor cells
number of tumor-infiltrating activated CD8+ T-cells [5]: increases the number of tumor-infiltrating activated CD8+ T-cells
